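Five compound concentrations were applied to cells in 96-well plates for 48 hours; endpoints were derived by simple linear interpolation of the resulting dose-response curve. At the GI50, growth is halved. TGI: total growth inhibition.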
Legend:
Assay in all cases: NCI-60 cell line screen, 48 h
DU-145 prostate = tested on: DU-145 prostate
SN12C renal = tested on: SN12C renal
SK-MEL-5 melanoma = tested on: SK-MEL-5 melanoma
SR leukemia = tested on: SR leukemia
NCI/ADR-RES ovarian = tested on: NCI/ADR-RES ovarian
ACHN renal = tested on: ACHN renal
TK-10 renal = tested on: TK-10 renal
SW-620 colon = tested on: SW-620 colon
NCI-H460 lung = tested on: NCI-H460 lung
M14 melanoma = tested on: M14 melanoma
HCT-15 colon = tested on: HCT-15 colon
MDA-MB-435 = tested on: MDA-MB-435
MOLT-4 leukemia = tested on: MOLT-4 leukemia
SF-268 CNS = tested on: SF-268 CNS
SK-MEL-28 melanoma = tested on: SK-MEL-28 melanoma
OVCAR-5 ovarian = tested on: OVCAR-5 ovarian
SK-OV-3 ovarian = tested on: SK-OV-3 ovarian
SF-539 CNS = tested on: SF-539 CNS
786-0 renal = tested on: 786-0 renal
A498 renal = tested on: A498 renal
HOP-92 NSCLC = tested on: HOP-92 NSCLC
UACC-62 melanoma = tested on: UACC-62 melanoma
T-47D breast = tested on: T-47D breast
CCRF-CEM leukemia = tested on: CCRF-CEM leukemia
CAKI-1 renal = tested on: CAKI-1 renal
MCF7 breast = tested on: MCF7 breast
K-562 leukemia = tested on: K-562 leukemia
RPMI-8226 leukemia = tested on: RPMI-8226 leukemia
NCI-H226 lung = tested on: NCI-H226 lung
UACC-257 melanoma = tested on: UACC-257 melanoma
U251 CNS = tested on: U251 CNS
PC-3 prostate = tested on: PC-3 prostate
NCI-H23 lung = tested on: NCI-H23 lung
SF-295 CNS = tested on: SF-295 CNS
NCI-H522 lung = tested on: NCI-H522 lung
EKVX NSCLC = tested on: EKVX NSCLC
HCC-2998 colon = tested on: HCC-2998 colon
KM12 colon = tested on: KM12 colon
RXF 393 renal = tested on: RXF 393 renal
MDA-MB-231 breast = tested on: MDA-MB-231 breast
SNB-75 CNS = tested on: SNB-75 CNS
A549 NSCLC = tested on: A549 NSCLC
HCT-116 colon = tested on: HCT-116 colon
COLO 205 colon = tested on: COLO 205 colon
OVCAR-4 ovarian = tested on: OVCAR-4 ovarian
HT29 colon = tested on: HT29 colon
UO-31 renal = tested on: UO-31 renal
LOX IMVI melanoma = tested on: LOX IMVI melanoma
HS 578T breast = tested on: HS 578T breast
OVCAR-8 ovarian = tested on: OVCAR-8 ovarian
SNB-19 CNS = tested on: SNB-19 CNS
SK-MEL-2 melanoma = tested on: SK-MEL-2 melanoma
IGROV1 ovarian = tested on: IGROV1 ovarian
HOP-62 NSCLC = tested on: HOP-62 NSCLC
BT-549 breast = tested on: BT-549 breast
HL-60(TB) leukemia = tested on: HL-60(TB) leukemia
MALME-3M melanoma = tested on: MALME-3M melanoma

NC(=O)n1c(=O)n(-c2cccc(C(F)(F)F)c2)c(=O)c2cc(-c3ccc(F)cc3F)ccc21
GI50 (DU-145 prostate): 3.53 µM
TGI (DU-145 prostate): 15.5 µM
GI50 (SN12C renal): 1.27 µM
TGI (SN12C renal): 7.24 µM
GI50 (SK-MEL-5 melanoma): 0.338 µM
TGI (SK-MEL-5 melanoma): 1.21 µM
GI50 (SR leukemia): 0.58 µM
TGI (SR leukemia): 4.6 µM
GI50 (NCI/ADR-RES ovarian): 2.06 µM
TGI (NCI/ADR-RES ovarian): 8.87 µM
GI50 (ACHN renal): 2.42 µM
TGI (ACHN renal): 10.1 µM
GI50 (TK-10 renal): 4.04 µM
TGI (TK-10 renal): 9.74 µM
GI50 (SW-620 colon): 2.65 µM
TGI (SW-620 colon): 10.4 µM
GI50 (NCI-H460 lung): 1.39 µM
TGI (NCI-H460 lung): 6.8 µM
GI50 (M14 melanoma): 1.34 µM
TGI (M14 melanoma): 3.8 µM
GI50 (HCT-15 colon): 0.79 µM
TGI (HCT-15 colon): 2.68 µM
GI50 (MDA-MB-435): 1.89 µM
TGI (MDA-MB-435): 7.33 µM
GI50 (MOLT-4 leukemia): 2.22 µM
TGI (MOLT-4 leukemia): 6.16 µM
GI50 (SF-268 CNS): 2.57 µM
TGI (SF-268 CNS): 13 µM
GI50 (SK-MEL-28 melanoma): 1.39 µM
TGI (SK-MEL-28 melanoma): 8.55 µM
GI50 (OVCAR-5 ovarian): 3.38 µM
TGI (OVCAR-5 ovarian): 14.4 µM
GI50 (SK-OV-3 ovarian): 1.6 µM
TGI (SK-OV-3 ovarian): 4.42 µM
GI50 (SF-539 CNS): 2.11 µM
TGI (SF-539 CNS): 8.5 µM
GI50 (786-0 renal): 1.94 µM
TGI (786-0 renal): 4.54 µM
GI50 (A498 renal): 0.512 µM
TGI (A498 renal): 1.93 µM
GI50 (HOP-92 NSCLC): 0.149 µM
TGI (HOP-92 NSCLC): 0.568 µM
GI50 (UACC-62 melanoma): 0.363 µM
TGI (UACC-62 melanoma): 1.69 µM
GI50 (T-47D breast): 1.61 µM
TGI (T-47D breast): 6.28 µM
GI50 (CCRF-CEM leukemia): 3.07 µM
TGI (CCRF-CEM leukemia): 19 µM
GI50 (CAKI-1 renal): 1.9 µM
TGI (CAKI-1 renal): 6.38 µM
GI50 (MCF7 breast): 1.74 µM
TGI (MCF7 breast): 6.47 µM
GI50 (K-562 leukemia): 0.771 µM
TGI (K-562 leukemia): 80.3 µM
GI50 (RPMI-8226 leukemia): 0.99 µM
TGI (RPMI-8226 leukemia): 5.12 µM
GI50 (NCI-H226 lung): 1.31 µM
TGI (NCI-H226 lung): 3.99 µM
GI50 (UACC-257 melanoma): 1.06 µM
TGI (UACC-257 melanoma): 4.54 µM
GI50 (U251 CNS): 2.01 µM
TGI (U251 CNS): 11.1 µM
GI50 (PC-3 prostate): 1.07 µM
TGI (PC-3 prostate): 5.73 µM
GI50 (NCI-H23 lung): 1.23 µM
TGI (NCI-H23 lung): 4.63 µM
GI50 (SF-295 CNS): 1.68 µM
TGI (SF-295 CNS): 3.51 µM
GI50 (NCI-H522 lung): 0.493 µM
TGI (NCI-H522 lung): 3.74 µM
GI50 (EKVX NSCLC): 2.83 µM
TGI (EKVX NSCLC): 9.59 µM
GI50 (HCC-2998 colon): 2.76 µM
TGI (HCC-2998 colon): 9.26 µM
GI50 (KM12 colon): 2.55 µM
TGI (KM12 colon): 7.15 µM
GI50 (RXF 393 renal): 1.23 µM
TGI (RXF 393 renal): 3.13 µM
GI50 (MDA-MB-231 breast): 2.12 µM
TGI (MDA-MB-231 breast): 6.86 µM
GI50 (SNB-75 CNS): 1.81 µM
TGI (SNB-75 CNS): 7.47 µM
GI50 (A549 NSCLC): 3.19 µM
TGI (A549 NSCLC): 11.8 µM
GI50 (HCT-116 colon): 0.559 µM
TGI (HCT-116 colon): 1.98 µM
GI50 (COLO 205 colon): 3.35 µM
TGI (COLO 205 colon): 10.6 µM
GI50 (OVCAR-4 ovarian): 2.81 µM
TGI (OVCAR-4 ovarian): 16.5 µM
GI50 (HT29 colon): 4.38 µM
TGI (HT29 colon): 18.8 µM
GI50 (UO-31 renal): 2.19 µM
TGI (UO-31 renal): 8.44 µM
GI50 (LOX IMVI melanoma): 1.68 µM
TGI (LOX IMVI melanoma): 3.76 µM
GI50 (HS 578T breast): 2.12 µM
TGI (HS 578T breast): 7.06 µM
GI50 (OVCAR-8 ovarian): 1.84 µM
TGI (OVCAR-8 ovarian): 9.65 µM
GI50 (SNB-19 CNS): 1.51 µM
TGI (SNB-19 CNS): 12.7 µM
GI50 (SK-MEL-2 melanoma): 0.75 µM
TGI (SK-MEL-2 melanoma): 2.82 µM
GI50 (IGROV1 ovarian): 2.12 µM
TGI (IGROV1 ovarian): 15.1 µM
GI50 (HOP-62 NSCLC): 1.96 µM
TGI (HOP-62 NSCLC): 4.79 µM
GI50 (BT-549 breast): 0.315 µM
TGI (BT-549 breast): 1.12 µM
GI50 (HL-60(TB) leukemia): 1.27 µM
TGI (HL-60(TB) leukemia): 7.52 µM
GI50 (MALME-3M melanoma): 1.44 µM
TGI (MALME-3M melanoma): 5.3 µM
